Measurements: patent US6376200B1, “Kainate-binding, human CNS receptors of the EAA4 family” (priority 1992, dated 2002)
Read-outs that look alike come from different tables or passages of the source.

Legend:
human EAA4a receptor [1] = molecular target: T1, human EAA4a receptor (Homo sapiens, UniProt Q13002); type: cell-based; set-up: transported to the cell surface in mature form, lacking the signal peptide and consisting of 877 amino acids; expressed in transfected cells; host or cells: Xenopus oocytes (stage V or VI), nuclear injection of pcDNAI/humEAA4a DNA; settings: for oocyte response to agonist: tested at -60, -80 and -100 mV
Description: Xenopus oocytes (stage V or VI) were harvested and the nucleus of the oocytes was injected with 5 ng of pcDNAI/humEAA4a DNA.

human EAA4a receptor [2] = molecular target: T1, human EAA4a receptor; settings: COS cell membranes
Description: Transfected cells in the frozen state were resuspended in ice-cold distilled water using a hand homogenizer and centrifuged for 20 miutes at 50,000 g. The supernatant was discarded and the membrane pellet stored frozen at −70° C.
Proteins were determined using the Pierce Reagent with BSA as standard.
Binding assays were then performed, using an amount of COS-derived membrane equivalent to 25-100 ug as judged by protein determination and selected radiolabelled ligand. […] Samples were incubated on ice for 60 minutes, and bound and free ligand were then separated by rapid filtration using a PHD cell harvester and GF/B filters pre-soaked in ice-cold 0.3% polyethyleneimine. Filters were washed twice in 4 ml of the cold incubation buffer, then placed in scintillation vials with 5 ml of Beckman Ready-Protein Plus scintillation cocktail for counting.
Samples were incubated on ice for 60 minutes in plastic minivials, and bound and free ligand were separated by centrifugation for 30 minutes at 50,000 g. Pellets were washed twice in 4 ml of the cold incubation buffer, then 5 ml of Beckman Ready-Protein Plus scintillation cocktail was added, for counting.

T1 sequence (Q13002 32-908): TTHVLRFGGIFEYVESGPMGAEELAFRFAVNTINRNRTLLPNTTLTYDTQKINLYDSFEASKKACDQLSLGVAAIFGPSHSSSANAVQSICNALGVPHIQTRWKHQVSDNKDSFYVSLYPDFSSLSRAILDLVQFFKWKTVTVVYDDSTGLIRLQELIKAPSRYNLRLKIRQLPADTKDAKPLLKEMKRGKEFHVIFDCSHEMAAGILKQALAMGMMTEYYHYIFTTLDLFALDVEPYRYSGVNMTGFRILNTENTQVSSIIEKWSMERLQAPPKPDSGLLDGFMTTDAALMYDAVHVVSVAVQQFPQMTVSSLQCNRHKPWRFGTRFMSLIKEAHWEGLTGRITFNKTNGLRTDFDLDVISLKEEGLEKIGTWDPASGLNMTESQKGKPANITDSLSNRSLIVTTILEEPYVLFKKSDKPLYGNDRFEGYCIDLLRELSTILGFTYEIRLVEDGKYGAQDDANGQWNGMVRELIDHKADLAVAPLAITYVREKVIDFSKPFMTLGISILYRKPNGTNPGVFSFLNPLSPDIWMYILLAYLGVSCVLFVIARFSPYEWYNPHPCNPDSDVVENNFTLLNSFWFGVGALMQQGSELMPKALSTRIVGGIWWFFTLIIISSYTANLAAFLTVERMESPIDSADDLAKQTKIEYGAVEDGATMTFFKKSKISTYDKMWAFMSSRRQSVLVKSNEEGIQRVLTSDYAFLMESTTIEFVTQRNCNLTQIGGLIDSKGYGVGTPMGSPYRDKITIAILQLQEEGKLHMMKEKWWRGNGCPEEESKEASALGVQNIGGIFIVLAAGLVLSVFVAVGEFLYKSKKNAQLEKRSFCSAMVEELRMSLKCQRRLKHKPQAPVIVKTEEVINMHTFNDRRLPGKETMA

SMILES	effect on the dose/response curve for L-glutamate (human EAA4a receptor [1]; DNQX 2×10^-6M, FIG. 10)	effect on the glutamate response (human EAA4a receptor [1]; oocytes, FIG. 8)	binding to EAA4a receptor (human EAA4a receptor [2])	oocyte response to agonist (human EAA4a receptor [1]; 10^-4M)	oocyte response to agonist (human EAA4a receptor [1]; NMDA 10^-4M with glycine 10^-6M)
O=C1N=c2cc([N+](=O)[O-])c([N+](=O)[O-])cc2=NC1=O [DNQX, 6,7-dinitroquinoxaline-2,3-dione]	parallel shift of the dose/response curve for L-glutamate to the right	blocked the glutamate response	–	–	–
CN[C@H](CC(=O)O)C(=O)O [NMDA, N-methyl-D-aspartate]	–	–	little or no demonstrable binding	did not respond	did not respond
